{"source": "patent US20210139993A1", "about": "“METHOD FOR PREDICTING SURVIVAL IN CHILDREN WITH ACUTE LYMPHOBLASTIC LEUKEMIA” (UNIVERSITAT AUTONOMA DE BARCELONA, priority 2017, published 2021)", "test_system": "childhood ALL patients with adverse cytogenetics harboring t(9; 22)", "experiment": "Kaplan-Meier survival of childhood ALL patients by cytogenetic risk group", "format": "in vivo, human", "details": "five of the six cases with adverse cytogenetics", "text": "One hundred and seventy-three patients diagnosed with ALL and younger than 18 years were recruited from Sant Joan de Déu Hospital, Barcelona, Spain and from Cruces Hospital, Barakaldo, Spain between 1996 and 2012. Patients were all from Caucasian descent. […] Samples were extracted when patients were at complete remission or without cytogenetic aberrations affecting chromosomes where the polymorphisms are located. Clinical data were collected at diagnosis, including sex, age, leukemia type (T-cell, B-cell or mixed), WBC count, cytogenetic risk group and treatment protocol (Table 1). The different cytogenetic risk groups were classified according to the criteria from the Spanish Society of Pediatric Hematology and Oncology as follow: Presence of t(9; 22), t(4; 11) or MLL rearrangements at 11q23, or hipodiploidy (<44 chromosomes) was considered adverse group. Presence of 412; 21) or hiperdiploidy (>50 chromosomes) was considered favorable and all other cases were considered to belong to intermediate cytogenetic risk group. […] Every genotype was analyzed separately and moreover, in case of CNVs, null genotypes were tested vs. non-null genotypes, and in case of SNPs, heterozygotes were grouped together with either homozygote genotype."}
{"molecule": "Cc1ccc(NC(=O)c2ccc(CN3CCN(C)CC3)cc2)cc1Nc1nccc(-c2cccnc2)n1", "note": "[imatinib]", "values": [{"measurement": "treatment outcome", "value": "successful"}]}
